From US20250073340A1, “SPIROCYCLIC MDM2 MODULATOR AND USES THEREOF” (Newave Pharmaceutical Inc., priority 2021, published 2025)

Key:
[1] = test system: BCL-2-dependent acute lymphoblastic leukemia (ALL) cell line RS4;11 overexpressing Bcl-2 G101V; experiment: cells; type: cell-based; conditions: Homo sapiens, RS4-11; about 72 hours, ATPlite luminescence; read-out: RS4;11-G101V IC50
Method in brief: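 About 1×10^4 cells per well treated with compound for about 72 hours in medium with 5% FBS or 10% normal human serum. Viability from ATP-based luminescence (ATPlite) after lysis; IC50 derived from dose range.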

Mice PK study = type: in vivo; conditions: 25 mg/kg; Oral, 25 mpk, CD-1 mouse, plasma
Procedure: Biological Example 4: Mice PK Study
The pharmacokinetics of compounds were evaluated in CD-1 mouse via Intravenous and Oral Administration. The IV dose was administered as a slow bolus in the Jugular vein, and oral doses were administered by gavage. The formulation for IV dosing was 5% DMSO in 20% HPBCD in water, and the PO formulation was 2.5% DMSO, 10% EtOH, 20% Cremphor EL, 67.5% D5W. The PK time point for the IV arm was 5, 15, 30 min, 1, 2, 4, 6, 8, 12, 24 hours post dose, and for PO arm was 15, 30 min, 1, 2, 4, 6, 8, 12, 24 hours post dose. Approximately 0.03 mL blood was collected at each time point. Blood of each sample was transferred into plastic micro centrifuge tubes containing EDTA-K2 and collect plasma within 15 min by centrifugation at 4000 g for 5 minutes in a 4° C. centrifuge. Plasma samples were stored in polypropylene tubes. The samples were stored in a freezer at −75±15° C. prior to analysis. Concentrations of compounds in the plasma samples were analyzed using a LC-MS/MS method. […] The following pharmacokinetic parameters were calculated, whenever possible from the plasma concentration versus time data: IV administration: C0, CL, Vd, T1/2, AUCinf, AUClast, MRT, Number of Points for Regression; PO administration: Cmax, Tmax, T1/2, AUCinf, AUClast, F %, Number of Points for Regression. […]

MDM2 = MDM2 (Homo sapiens (Human), UniProt Q00987); experiment: In vitro MDM2 HTRF assay (inhibition of p53-MDM2 interaction); type: binding; conditions: GST-MDM2 / biotinylated p53 peptide
Chain of MDM2 (Q00987 whole entry): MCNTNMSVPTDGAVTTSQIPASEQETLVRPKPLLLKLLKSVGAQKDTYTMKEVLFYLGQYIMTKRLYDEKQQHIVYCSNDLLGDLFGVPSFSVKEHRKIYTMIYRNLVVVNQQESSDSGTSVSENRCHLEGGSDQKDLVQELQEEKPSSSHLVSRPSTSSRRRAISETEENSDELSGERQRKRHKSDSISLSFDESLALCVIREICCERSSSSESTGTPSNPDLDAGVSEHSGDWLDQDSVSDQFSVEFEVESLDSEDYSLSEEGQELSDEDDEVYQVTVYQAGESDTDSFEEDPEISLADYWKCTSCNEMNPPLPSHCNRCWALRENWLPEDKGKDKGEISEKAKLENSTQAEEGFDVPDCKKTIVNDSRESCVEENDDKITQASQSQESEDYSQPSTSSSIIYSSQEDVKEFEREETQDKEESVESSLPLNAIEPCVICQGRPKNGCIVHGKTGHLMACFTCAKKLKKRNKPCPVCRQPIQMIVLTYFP

IC50 [1] [nM]	AUC (Mice PK study) [ng·h/mL]	IC50 (MDM2) [nM]	Structure (SMILES)
7.71	49400	3.38	COc1cc(C(=O)N2CCC3(CC2)C[C@@H]3C#Cc2cccc3c2CN([C@H]2CCC(=O)NC2=O)C3=O)ccc1NC(=O)[C@@H]1N[C@@H](CC(C)(C)C)[C@@]2(CNc3cc(Cl)ccc32)[C@H]1c1cccc(Cl)c1F [Example 58, (2′S,3S,4′S,5′R)-6-chloro-4′-(3-chloro-2-fluorophenyl)-2′-(2,2-dimethylpropyl)-N-{4-[(1S)-1-(2-{2-[(3S)-2,6-dioxopiperidin-3-yl]-1-oxo-3H-isoindol-4-yl}ethynyl)-6-azaspiro[2.5]octane-6-carbonyl]-2-methoxyphenyl}-1,2-dihydrospiro[indole-3,3′-pyrrolidine]-5′-carboxamide]
1.09	–	23.4	COc1cc(C(=O)N2CCC3(CC2)C[C@@H]3C#Cc2cccc3c2CN([C@H]2CCC(=O)NC2=O)C3=O)ccc1NC(=O)[C@@H]1N[C@@H](CC(C)(C)C)[C@@]2(CNc3cc(C(F)(F)F)ncc32)[C@H]1c1cccc(Cl)c1F [Example 56, (2S,3S,4S,5R)-4-(3-chloro-2-fluorophenyl)-N-(4-((S)-1-((2-((S)-2,6-dioxopiperidin-3-yl)-1-oxoisoindolin-4-yl)ethynyl)-6-azaspiro[2.5]octane-6-carbonyl)-2-methoxyphenyl)-2-neopentyl-6′-(trifluoromethyl)-1′,2′-dihydrospiro[pyrrolidine-3,3′-pyrrolo[3,2-c]pyridine]-5-carboxamide]

Further lines, the compound ahead of its results:

Structure (SMILES)	IC50 [1] [nM]	AUC (Mice PK study) [ng·h/mL]	IC50 (MDM2) [nM]
COc1cc(C(=O)NC23CC(C#Cc4cccc5c4CN(C4CCC(=O)NC4=O)C5=O)(C2)C3)ccc1NC(=O)[C@@H]1N[C@@H](CC(C)(C)C)[C@@]2(CNc3cc(Cl)ccc32)[C@H]1c1cccc(Cl)c1F (stereo partly drawn) [Example 21, (2′S,3S,4′S,5′R)-6-chloro-4′-(3-chloro-2-fluorophenyl)-2′-(2,2-dimethylpropyl)-N-{4-[(3-{2-[2-(2,6-dioxopiperidin-3-yl)-1-oxo-3H-isoindol-4-yl]ethynyl}bicyclo[1.1.1]pentan-1-yl)carbamoyl]-2-methoxyphenyl}-1,2-dihydrospiro[indole-3,3′-pyrrolidine]-5′-carboxamide]	448	–	3.45
COc1cc(N2CCC3(CC2)CC([C@@H]2C[C@H]2C#Cc2cccc4c2CN(C2CCC(=O)NC2=O)C4=O)C3)ccc1NC(=O)[C@@H]1N[C@@H](CC(C)(C)C)[C@@]2(CNc3cc(Cl)ccc32)[C@H]1c1cccc(Cl)c1F (stereo partly drawn) [Example 22, (2′S,3S,4′S,5′R)-6-chloro-4′-(3-chloro-2-fluorophenyl)-N-(4-(2-((1S,2R)-2-((2-(2,6-dioxopiperidin-3-yl)-1-oxoisoindolin-4-yl)ethynyl)cyclopropyl)-7-azaspiro[3.5]nonan-7-yl)-2-methoxyphenyl)-2′-neopentylspiro[indoline-3,3′-pyrrolidine]-5′-carboxamide]	> 1000	–	272
COc1cc(C(=O)N[C@H]2CCC[C@H](C#Cc3cccc4c3CN(C3CCC(=O)NC3=O)C4=O)C2)ccc1NC(=O)[C@@H]1N[C@@H](CC(C)(C)C)[C@@]2(CNc3cc(Cl)ccc32)[C@H]1c1cccc(Cl)c1F (stereo partly drawn) [Example 35, (2′S,3S,4′S,5′R)-6-chloro-4′-(3-chloro-2-fluorophenyl)-2′-(2,2-dimethylpropyl)-N-(4-{[(1S,3S)-3-{2-[2-(2,6-dioxopiperidin-3-yl)-1-oxo-3H-isoindol-4-yl]ethynyl}cyclohexyl]carbamoyl}-2-methoxyphenyl)-1,2-dihydrospiro[indole-3,3′-pyrrolidine]-5′-carboxamide]	82.7	–	3.74
COc1cc(C(=O)NCCCC#Cc2cccc3c2CN([C@@H]2CCC(=O)NC2=O)C3=O)ccc1NC(=O)[C@@H]1N[C@@H](CC(C)(C)C)[C@@]2(CNc3cc(Cl)ccc32)[C@H]1c1cccc(Cl)c1F [Example 17, (2′S,3S,4′S,5′R)-6-chloro-4′-(3-chloro-2-fluorophenyl)-N-(4-((5-(2-((R)-2,6-dioxopiperidin-3-yl)-1-oxoisoindolin-4-yl)pent-4-yn-1-yl)carbamoyl)-2-methoxyphenyl)-2′-neopentylspiro[indoline-3,3′-pyrrolidine]-5′-carboxamide]	3.82	–	1.36
COc1cc(C(=O)N2CCC3(CC2)CC(C#Cc2cccc4c2CN(C2CCC(=O)NC2=O)C4=O)C3)ccc1NC(=O)[C@@H]1N[C@@H](CC(C)(C)C)[C@@]2(CNc3cc(Cl)ccc32)[C@H]1c1cccc(Cl)c1F (stereo partly drawn) [Example 42, (2′S,3S,4′S,5′R)-6-chloro-4′-(3-chloro-2-fluorophenyl)-N-(4-(2-((2-(2,6-dioxopiperidin-3-yl)-1-oxoisoindolin-4-yl)ethynyl)-7-azaspiro[3.5]nonane-7-carbonyl)-2-methoxyphenyl)-2′-neopentylspiro[indoline-3,3′-pyrrolidine]-5′-carboxamide]	99.1	–	4.51
